Key:
Assay in all cases: Combined use with irradiation (IR), Bliss Independence model (Cell Titer Glo, 7 days)
Assay type in all cases: cell-based
Settings in all cases: combination with IR
DLD-1 = system: DLD-1
Description: (§1) DLD-1 colorectal adenocarcinoma cells, NUGC4 gastric cancer cells, NCI-H460 non-small cell lung cancer cells, SHP-77 small cell lung cancer cells, and LNCAP prostate cancer cells were cultured in a 1640 medium containing 10% fetal bovine serum. MDA-MB-436 breast cancer cells were cultured in a DMEM medium containing 10% fetal bovine serum. OVCAR3 ovarian cancer cells were cultured in a 1640 medium containing 20% fetal bovine serum and 10 µg/mL bovine insulin. The cells were all cultured at 37 °C with 5% CO2. Cells at the logarithmic growth phase were available for the experiment.
(§2) 100 µL of the cell medium was added to rows A and H and columns 1 and 12 of a 96-well cell culture plate. Cultured cells were resuspended (adherent cells were digested with trypsin) and counted to give information on cell density and viability. The dilution ratio of the resuspended cells required for inoculating a fixed number of cells into 90 µL of the medium in each culture well was calculated based on the cell density information. After the resuspended cells were diluted with the corresponding medium, 90 µL of the diluted cells were transferred to columns 2-11 of rows B-G of a 96-well cell culture plate using an Eppendorf multi-channel pipette (60 wells in total for each plate). The cell culture plate was incubated overnight in an incubator at 37 °C with 5% CO2.
(§3) The test compound was dissolved in DMSO to give a 10 mM stock solution for later use. In the experiment, the compound was further diluted to the corresponding concentration according to the concentration designed in the experiment, and based on this concentration, 4-fold serial gradient dilution was performed to give a total of 10 dose concentrations (the lowest dose was 0, and other specific concentration values were shown in FIG. 2). 10 µL of the diluted compound was added to the corresponding cell plate well, such that the final concentration of DMSO was 0.25%. The compound was incubated with the cells in an incubator at 37 °C with 5% CO2 for 4 h, and then the cell plate was transferred to Cellrad for irradiation (abbreviated as IR) at different doses (see FIG. 2 for specific dose values). After the irradiation was completed, the cell plate was incubated in an incubator at 37 °C with 5% CO2 for another 7 days, Cell Titer Glo was added at 50 µL/well, and the luminescence value of each well was read using an Envision microplate reader.
(§4) The luminescence value of the well containing only the cell medium was taken as the background (RLUbackground, corresponding cell survival rate to be 0%), the cell well containing only 0.25% DMSO without the compound and the irradiation treatment was taken as the maximum signal (RLUDMSO, corresponding cell survival rate to be 100%), and the luminescence values of the remaining wells containing cells and compounds at different concentrations were taken as RLUsample. The survival rate of each cell well was calculated as follows: Survival rate (%) = (RLUsample−RLUbackground)/(RLUDMSO−RLUbackground) × 100% [formula]
(§5) The interaction between the drug and irradiation (synergistic, independent, or antagonistic) was statistically analyzed by the Bliss Independence model using Combenefit software (Bliss, C.I., Bacteriol. Rev., 1956, 20, 243-258). The model assumes that the drug and irradiation act independently. The theoretical expected action curve of the combination was calculated from the following equation: Bliss effect = effect A + effect B−effect A × effect B [formula] wherein effect A is the effect of drug A at a particular concentration. Effect B is the effect of irradiation at a particular dose.
(§6) The Bliss effect is the expected effect when the combination of the drug and irradiation is administered precisely. A negative Bliss score (δ = observed effect - Bliss effect) indicates an antagonistic effect between the drug and irradiation if the observed effect (i.e., the experimentally measured combined effect) is less than the Bliss effect. […]

LNCAP = system: LNCAP
Description: as §1, §2, §3, §4, §5, §6

MDA-MB-436 = system: MDA-MB-436
Description: as §1, §2, §3, §4, §5, §6

NCI-H460 = system: NCI-H460
Description: as §1, §2, §3, §4, §5, §6

NUGC4 = system: NUGC4
Description: as §1, §2, §3, §4, §5, §6

OVCAR3 = system: OVCAR3
Description: as §1, §2, §3, §4, §5, §6

SHP-77 = system: SHP-77
Description: as §1, §2, §3, §4, §5, §6

Measured: Combined effect

COc1ccc(Cl)cc1-c1cc(C)ncc1C(=O)Nc1nc2ncc(-c3ccc(C#N)cc3)nc2s1.[Na] [Sodium salt of compound I, Sodium Salt of 4-(5-Chloro-2-methoxyphenyl)-N-[6-(4-cyanophenyl)thiazolo[4,5-b]pyrazin-2-yl]-6-methylnicotinamide]
Synergistic: all assays above
